Key:
[1] = test system: IPOHE (Morningglory, Ivyleaf); assay: Preemergence herbicidal evaluation; format: in vivo, Ipomoea hederacea; conditions: rated 4-5 weeks after treatment, rating scale 0-9
Outline: (§1)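 Rating at 4–5 wk post-spray on a 0–9 visual scale vs control. Application: aqueous acetone, ~0.0156–0.500 kg/ha, to soil surface after seeding, preemergence.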

[2] = test system: GLXMAW (Soybean, Williams); assay: Postemergence herbicidal evaluation; format: in vivo, Glycine max, (L.) Merr. cv Williams; conditions: postemergence
Outline: (§2)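 Compound is applied as a foliar spray to seedlings about two weeks old, formulated in equal parts acetone and water with 0.5% TWEEN 20 and delivered at 40 psi to give about 0.0156–0.500 kg per hectare. Injury is rated visually 0–9 after four to five weeks.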

ABUTH (Velvetleaf) [3] = assay: Preemergence herbicidal evaluation; format: in vivo, Abutilon theophrasti; conditions: rated 4-5 weeks after treatment, rating scale 0-9
Outline: as §1

CYPSE (Flatsedge) = assay: Preemergence weed control under flooded paddy conditions; format: in vivo, Cyperus serotinus; conditions: rated 3-4 weeks after treatment
Outline: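 Flooded-pot preemergence screen with silt loam and seeds in the upper 0.5 cm. Dose about 0.0313 to 0.500 kg/ha, delivered into flood water; visual 0-9 score after 3 to 4 weeks.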

[4] = test system: IPOHE (Morningglory, Ivyleaf); assay: Postemergence herbicidal evaluation; format: in vivo, Ipomoea hederacea; conditions: postemergence
Outline: as §2

[5] = test system: ECHORC (Watergrass (Calif.)); assay: Preemergence weed control under flooded paddy conditions; format: in vivo, Echinochloa oryzoides; conditions: rated 3-4 weeks after treatment
Outline: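 Seeds or propagules sown in silt loam kept flooded 1.5-3 cm; compounds in 50/50 acetone/water pipetted into flood water at about 0.0313 to 0.500 kg/ha. Greenhouse; visual 0-9 rating versus untreated control 3-4 weeks after treatment.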

CASOB (Sicklepod) = assay: Preemergence herbicidal evaluation; format: in vivo, Cassia obtusifolia; conditions: rated 4-5 weeks after treatment, rating scale 0-9
Outline: as §1

SETVI (Foxtail, Green) = assay: Postemergence herbicidal evaluation; format: in vivo, Setaria viridis; conditions: postemergence
Outline: as §2

ABUTH (Velvetleaf) [6] = assay: Postemergence herbicidal evaluation; format: in vivo, Abutilon theophrasti; conditions: postemergence
Outline: as §2

ECHCG (Barnyardgrass) = assay: Preemergence herbicidal evaluation; format: in vivo, Echinochloa crus-galli; conditions: rated 4-5 weeks after treatment, rating scale 0-9
Outline: as §1

AMBEL (Ragweed, Common) = assay: Preemergence herbicidal evaluation; format: in vivo, Ambrosia artemisifolia; conditions: rated 4-5 weeks after treatment, rating scale 0-9
Outline: as §1

ZEAMX (Corn, Field) = assay: Postemergence herbicidal evaluation; format: in vivo, Zea mays; conditions: postemergence
Outline: as §2

COc1ccc(CN2C(=O)CSC2=Nc2cc(-n3c(=O)cc(C(F)(F)F)n(C)c3=O)c(F)cc2Cl)c(OC)c1 [Compound 139, 3-{4-Chloro-5-{[3-(2,4-dimethoxybenzyl)-4-oxo-2-thiazolidinylidene]amino}-2-fluorophenyl}-1-methyl-6-(trifluoromethyl)-2,4(1H,3H)-pyrimidinedione]
Preemergence herbicidal rating IPOHE ([1]; rate 0.0156 kg/ha): 0.0
Preemergence herbicidal rating IPOHE ([1]; rate 0.0313 kg/ha): 0.0
Preemergence herbicidal rating IPOHE ([1]; rate 0.0625 kg/ha): 2.0
Preemergence herbicidal rating IPOHE ([1]; rate 0.2500 kg/ha): 2.0
herbicidal rating GLXMAW ([2]; rate 0.0156 kg/ha): 5.5
herbicidal rating GLXMAW ([2]; rate 0.0313 kg/ha): 6.5
herbicidal rating GLXMAW ([2]; rate 0.0625 kg/ha): 7.0
Preemergence herbicidal rating ABUTH (ABUTH (Velvetleaf) [3]; rate 0.0156 kg/ha): 0.0
Preemergence herbicidal rating ABUTH (ABUTH (Velvetleaf) [3]; rate 0.0313 kg/ha): 0.0
Preemergence herbicidal rating ABUTH (ABUTH (Velvetleaf) [3]; rate 0.0625 kg/ha): 0.0
Preemergence herbicidal rating ABUTH (ABUTH (Velvetleaf) [3]; rate 0.1250 kg/ha): 9.0
Preemergence herbicidal rating ABUTH (ABUTH (Velvetleaf) [3]; rate 0.2500 kg/ha): 9.0
herbicidal effect rating, CYPSE (CYPSE (Flatsedge); 0.1250 kg/ha): 0.0
herbicidal effect rating, CYPSE (CYPSE (Flatsedge); 0.2500 kg/ha): 0.0
herbicidal rating IPOHE ([4]; rate 0.0156 kg/ha): 9.0
herbicidal rating IPOHE ([4]; rate 0.0313 kg/ha): 9.0
herbicidal rating IPOHE ([4]; rate 0.0625 kg/ha): 5.0
herbicidal effect rating, ECHORC ([5]; 0.0313 kg/ha): 6.0
herbicidal effect rating, ECHORC ([5]; 0.0625 kg/ha): 7.0
herbicidal effect rating, ECHORC ([5]; 0.1250 kg/ha): 7.0
herbicidal effect rating, ECHORC ([5]; 0.2500 kg/ha): 7.0
Preemergence herbicidal rating CASOB (CASOB (Sicklepod); rate 0.0156 kg/ha): 0.0
Preemergence herbicidal rating CASOB (CASOB (Sicklepod); rate 0.0313 kg/ha): 0.0
Preemergence herbicidal rating CASOB (CASOB (Sicklepod); rate 0.0625 kg/ha): 1.0
Preemergence herbicidal rating CASOB (CASOB (Sicklepod); rate 0.1250 kg/ha): 2.0
Preemergence herbicidal rating CASOB (CASOB (Sicklepod); rate 0.2500 kg/ha): 1.0
herbicidal rating SETVI (SETVI (Foxtail, Green); rate 0.0156 kg/ha): 2.0
herbicidal rating SETVI (SETVI (Foxtail, Green); rate 0.0313 kg/ha): 2.0
herbicidal rating SETVI (SETVI (Foxtail, Green); rate 0.0625 kg/ha): 5.0
herbicidal rating ABUTH (ABUTH (Velvetleaf) [6]; rate 0.0156 kg/ha): 9.0
herbicidal rating ABUTH (ABUTH (Velvetleaf) [6]; rate 0.0313 kg/ha): 9.0
herbicidal rating ABUTH (ABUTH (Velvetleaf) [6]; rate 0.0625 kg/ha): 9.0
Preemergence herbicidal rating ECHCG (ECHCG (Barnyardgrass); rate 0.0156 kg/ha): 1.0
Preemergence herbicidal rating ECHCG (ECHCG (Barnyardgrass); rate 0.0313 kg/ha): 0.0
Preemergence herbicidal rating ECHCG (ECHCG (Barnyardgrass); rate 0.0625 kg/ha): 0.0
Preemergence herbicidal rating ECHCG (ECHCG (Barnyardgrass); rate 0.1250 kg/ha): 1.0
Preemergence herbicidal rating ECHCG (ECHCG (Barnyardgrass); rate 0.2500 kg/ha): 1.0
Preemergence herbicidal rating AMBEL (AMBEL (Ragweed, Common); rate 0.0156 kg/ha): 0.0
Preemergence herbicidal rating AMBEL (AMBEL (Ragweed, Common); rate 0.0313 kg/ha): 1.0
Preemergence herbicidal rating AMBEL (AMBEL (Ragweed, Common); rate 0.0625 kg/ha): 0.0
Preemergence herbicidal rating AMBEL (AMBEL (Ragweed, Common); rate 0.1250 kg/ha): 3.0
Preemergence herbicidal rating AMBEL (AMBEL (Ragweed, Common); rate 0.2500 kg/ha): 4.0
herbicidal rating ZEAMX (ZEAMX (Corn, Field); rate 0.0156 kg/ha): 4.5
herbicidal rating ZEAMX (ZEAMX (Corn, Field); rate 0.0313 kg/ha): 4.5
herbicidal rating ZEAMX (ZEAMX (Corn, Field); rate 0.0625 kg/ha): 5.0

Cc1cccc(CN2C(=O)CSC2=Nc2cc(-n3c(=O)cc(C(F)(F)F)n(C)c3=O)c(F)cc2Cl)c1 [Compound 130, 3-{4-Chloro-2-fluoro-5-{[3-(m-methylbenzyl)-4-oxo-2-thiazolidinylidene]amino}phenyl}-1-methyl-6-(trifluoromethyl)-2,4 (1H, 3H)-pyrimidinedione]
Preemergence herbicidal rating IPOHE ([1]; rate 0.0156 kg/ha): 0.0
Preemergence herbicidal rating IPOHE ([1]; rate 0.0313 kg/ha): 0.0
Preemergence herbicidal rating IPOHE ([1]; rate 0.0625 kg/ha): 2.0
Preemergence herbicidal rating IPOHE ([1]; rate 0.1250 kg/ha): 9.0
Preemergence herbicidal rating IPOHE ([1]; rate 0.2500 kg/ha): 7.0
herbicidal rating GLXMAW ([2]; rate 0.0156 kg/ha): 5.5
herbicidal rating GLXMAW ([2]; rate 0.0313 kg/ha): 7.0
herbicidal rating GLXMAW ([2]; rate 0.0625 kg/ha): 8.0
Preemergence herbicidal rating ABUTH (ABUTH (Velvetleaf) [3]; rate 0.0156 kg/ha): 1.0
Preemergence herbicidal rating ABUTH (ABUTH (Velvetleaf) [3]; rate 0.0313 kg/ha): 9.0
Preemergence herbicidal rating ABUTH (ABUTH (Velvetleaf) [3]; rate 0.0625 kg/ha): 9.0
Preemergence herbicidal rating ABUTH (ABUTH (Velvetleaf) [3]; rate 0.1250 kg/ha): 9.0
Preemergence herbicidal rating ABUTH (ABUTH (Velvetleaf) [3]; rate 0.2500 kg/ha): 9.0
herbicidal effect rating, CYPSE (CYPSE (Flatsedge); 0.0313 kg/ha): 5.0
herbicidal effect rating, CYPSE (CYPSE (Flatsedge); 0.0625 kg/ha): 5.0
herbicidal effect rating, CYPSE (CYPSE (Flatsedge); 0.1250 kg/ha): 0.0
herbicidal effect rating, CYPSE (CYPSE (Flatsedge); 0.2500 kg/ha): 7.0
herbicidal rating IPOHE ([4]; rate 0.0156 kg/ha): 9.0
herbicidal rating IPOHE ([4]; rate 0.0313 kg/ha): 9.0
herbicidal rating IPOHE ([4]; rate 0.0625 kg/ha): 9.0
herbicidal effect rating, ECHORC ([5]; 0.0313 kg/ha): 0.0
herbicidal effect rating, ECHORC ([5]; 0.0625 kg/ha): 2.0
herbicidal effect rating, ECHORC ([5]; 0.1250 kg/ha): 3.0
herbicidal effect rating, ECHORC ([5]; 0.2500 kg/ha): 4.0
Preemergence herbicidal rating CASOB (CASOB (Sicklepod); rate 0.0156 kg/ha): 0.0
Preemergence herbicidal rating CASOB (CASOB (Sicklepod); rate 0.0313 kg/ha): 1.0
Preemergence herbicidal rating CASOB (CASOB (Sicklepod); rate 0.0625 kg/ha): 2.0
Preemergence herbicidal rating CASOB (CASOB (Sicklepod); rate 0.2500 kg/ha): 3.0
herbicidal rating SETVI (SETVI (Foxtail, Green); rate 0.0156 kg/ha): 4.0
herbicidal rating SETVI (SETVI (Foxtail, Green); rate 0.0313 kg/ha): 6.0
herbicidal rating SETVI (SETVI (Foxtail, Green); rate 0.0625 kg/ha): 7.0
herbicidal rating ABUTH (ABUTH (Velvetleaf) [6]; rate 0.0156 kg/ha): 9.0
herbicidal rating ABUTH (ABUTH (Velvetleaf) [6]; rate 0.0313 kg/ha): 9.0
herbicidal rating ABUTH (ABUTH (Velvetleaf) [6]; rate 0.0625 kg/ha): 9.0
Preemergence herbicidal rating ECHCG (ECHCG (Barnyardgrass); rate 0.0156 kg/ha): 0.0
Preemergence herbicidal rating ECHCG (ECHCG (Barnyardgrass); rate 0.0313 kg/ha): 0.0
Preemergence herbicidal rating ECHCG (ECHCG (Barnyardgrass); rate 0.0625 kg/ha): 1.0
Preemergence herbicidal rating ECHCG (ECHCG (Barnyardgrass); rate 0.1250 kg/ha): 4.0
Preemergence herbicidal rating ECHCG (ECHCG (Barnyardgrass); rate 0.2500 kg/ha): 7.0
Preemergence herbicidal rating AMBEL (AMBEL (Ragweed, Common); rate 0.0156 kg/ha): 0.0
Preemergence herbicidal rating AMBEL (AMBEL (Ragweed, Common); rate 0.0313 kg/ha): 1.0
Preemergence herbicidal rating AMBEL (AMBEL (Ragweed, Common); rate 0.0625 kg/ha): 7.0
Preemergence herbicidal rating AMBEL (AMBEL (Ragweed, Common); rate 0.1250 kg/ha): 9.0
Preemergence herbicidal rating AMBEL (AMBEL (Ragweed, Common); rate 0.2500 kg/ha): 9.0
herbicidal rating ZEAMX (ZEAMX (Corn, Field); rate 0.0156 kg/ha): 4.5
herbicidal rating ZEAMX (ZEAMX (Corn, Field); rate 0.0313 kg/ha): 4.5
herbicidal rating ZEAMX (ZEAMX (Corn, Field); rate 0.0625 kg/ha): 5.0

Source: patent publication US20020137929A1, “1 - (3-heterocyclylphenyl) isothiourea, -isourea, -guanidine and -amidine herbicidal agents” (Intellectual Property Department, BASF Aktiengesellschaft, priority 1998, published 2002)
